The text below walks through data of patent US20070059260A1, “Benzyl-1,3-thiazolidine-2,4-dione compounds for promoting and/or inducing and/or stimulating the pigmentation of keratin materials and/or for limiting their depigmentation and/or whitening” (L'OREAL, priority 2005, published 2007).

One series has as its target T1, Type-1 15-PGDH (Homo sapiens, UniProt P15428).
T1 construct: made in house
T1 sequence (P15428 1-266): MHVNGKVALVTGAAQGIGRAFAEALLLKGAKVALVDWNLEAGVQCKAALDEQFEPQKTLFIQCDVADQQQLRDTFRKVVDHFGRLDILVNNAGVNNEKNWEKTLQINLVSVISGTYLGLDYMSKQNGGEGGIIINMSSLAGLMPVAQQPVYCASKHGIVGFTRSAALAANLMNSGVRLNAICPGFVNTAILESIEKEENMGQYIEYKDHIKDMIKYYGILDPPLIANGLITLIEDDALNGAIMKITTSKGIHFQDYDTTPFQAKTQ
Nature of the series: Test on type-1 15-PGDH (spectrophotometric, NAD/PGE2, 340 nm). The class given is biochemical. Conditions: concentration reducing enzymatic activity of 15-PGDH by 50%; 37° C., pH 7.4 Tris buffer, 1.5 mM β-NAD, 50 μM Prostaglandin E2; read-out: IC50dh or % inhibition at 100 μM. As for the experimental part:
The enzyme 15-PGDH is obtained as described in FR 02/05067 filed in the name of L'Oreal, as a suspension in a medium adjusted to a concentration of 0.3 mg/mL and then blocked at −80° C. For the purposes of the test, this suspension is thawed and stored in ice.
In parallel, a 100 mM, pH 7.4 Tris buffer containing 0.1 mM of dithiothreitol (D5545, Sigma-Aldrich, L'isle D'Abeau Chesne, BP 701, 38297, Saint Quentin Fallavier), 1.5 mM of β-NAD (N6522, Sigma-Aldrich, L'isle D'Abeau Chesne, BP 701, 38297, Saint Quentin Fallavier), and 50 μM of Prostaglandin E2 (P4172, Sigma-Aldrich, L'isle D'Abeau Chesne, BP 701, 38297, Saint Quentin Fallavier) is prepared.
0.965 ml of this buffer (brought to 37° C. beforehand) is introduced into the cuvette of a spectrophotometer (Perkin-Elmer, Lambda 2) thermostatically maintained at 37° C., the measuring wavelength of which is set at 340 nm. 0.035 mL of enzymatic suspension at 37° C. is introduced into the cuvette concomitantly with the recording (corresponding to an increase in the optical density at 340 nm). The maximum reaction rate is recorded.
The test values (containing the compounds of formula (I)) are compared with the control value (without compound of formula (I)); the results indicated represent either the percentage inhibition of the enzymatic activity of 15-PGDH for a given concentration of compound of formula (I), or the concentration at which the compound of formula (I) reduces the enzymatic activity of 15-PGDH by 50%, namely IC50dh.

For orientation: melting point means the temperature, or range, at which the solid turns liquid.

SMILES strings stand for the structures.

In the case of `O=C1NC(=O)C(Cc2ccccc2Oc2ccccc2)S1` (centres unmarked) [Compound 3], the IC50 at Type-1 15-PGDH was found to be 2750 nM.

`O=C1NC(=O)C(Cc2ccccc2Oc2ccc(Cl)cc2Cl)S1` (centres unmarked) [Compound 2]: on Type-1 15-PGDH, the IC50 came out at 1210 nM.

As for `CC(C)(C)c1ccc(Oc2cccc(CC3SC(=O)NC3=O)c2)cc1` (centres unmarked) [Compound 5], on Type-1 15-PGDH, the IC50 was 580 nM.

Regarding `CC(C)(C)c1ccc(Oc2ccccc2CC2SC(=O)NC2=O)cc1` (centres unmarked) [Compound 4, 5-[2-(4-tert-Butylphenoxy)benzyl]-1,3-thiazolidine-2,4-dione], the IC50 on Type-1 15-PGDH stood at 400 nM.

Take `O=C1NC(=O)C(Cc2ccccc2Oc2ccccc2)S1` (centres unmarked) [Example 1, 5-(2-phenoxybenzyl)-1,3-thiazolidine-2,4-dione]: the melting point lay in the range of 84 to 85 °C.
